One assay has as its system RAW 264.7 cells. In kind it is cell-based, murine. Particulars: for Inhibition of LPS-induced RNI-IC50: LPS-induced (2.5 ng/ml LPS in FIG. 6B). The protocol:
From the sequence of the CAP18 cDNA, it was apparent that the putative N-terminal peptide of CAP18 was in fact an internal fragment of the CAP18 protein. We therefore tried to reconfirm the original protein sequence. Neutrophil-derived heparin bound cationic proteins were prepared as described above and applied to a C18 reverse phase HPLC (FIG. 1). We sequenced the major peaks. Peaks at fractions 14.5 and 15.2 correspond to defensins MCP1 and MCP2 (Territo et al. (1989) J. Clin. Invest. 84:2017-2019), respectively. Fraction 25.8 is macrophage related protein 14 (MRP14) (Odink et al. (1987) Nature 330:80-82). The fraction at 20.3 minutes corresponds to a fragment of CAP18 of approximately 4-5 kD. […] The murine macrophage cell line RAW 264.7 (obtained from ATCC) and thioglycolate-elicited murine peritoneal exudate cells are used to produce RNI. Cells are cultured at 1×10^6 /ml. in RPMI-1640 +2.5% FCS in 24 well plates in the presence or absence of different concentrations of LPS or murine rlFNγ. After 24 hr. incubation at 37° C. the cell free supernatant is collected and tested for the presence of RNI. Accumulation of nitrite in the medium is measured by a colorimetric assay based on the Griess reaction (Green et al. (1982) Anal. Biochem. 126:11) using sodium nitrite as standards. Sample (50 μl) is mixed with 50 μl of Griess reagent (1% sulfanilamide, 0.1% naphthalene diamine dihydrochloride, 2.5% H3 PO4) and after 10 min. at room temperature absorbance is read at 570 nm.

Assay [1] has as its system Salmonella minnesota ReLPS sensitized sheep erythrocytes. Kind of assay: LPS hemagglutination assay (MAC). Type of assay: binding. As to the method:
For hemagglutination assays, erythrocytes were sensitized with LPS as follows. One ml of 1% erythrocyte suspension (human 0 type, C3H/HeN mouse or sheep) was mixed with 0.2 ml of LPS solution and incubated at 37° C. for 30 min, followed by washing with phosphate buffered saline (PBS), and then the concentration of suspension was adjusted to 1.0%. In the case of S-LPS, the solution was heated at 100° C. for 1 hour before sensitization of erythrocytes. […] Activity of CAP was expressed as a minimum agglutinating concentration (MAC) of CAP. According to the method of Kirikae et al. (1986) Microbiol. Immunol. 30:269-274, 50 μl of 2-fold serial dilution of Re-LPS was added to 50 μl of 1.0% rabbit erythrocyte suspension, and incubated at 37° C. for 3, hour. Minimum agglutinating concentration of Re-LPS was expressed as 1 HA unit.

For assay [2], the system named is thioglycolate-stimulated murine peritoneal macrophages. Kind of assay: LPS-induced tissue factor generation by macrophages. In kind it is cell-based. Particulars: peptide 1 μg/ml; 6 hr; FIG. 12. As to the method:
[…] Cells were cultured for 6 hours prior to assay of tissue factor by clotting assay.
[…] Production of tissue factor after 6 hr. was measured by clotting assay. […] In the absence of LPS no tissue factor is synthesized by these cells.

Another assay has as its system Salmonella minnesota Re. Kind of assay: Antibacterial CFU assay. The note with it: FIG. 6C.
Another assay concerns Salmonella typhimurium. Kind of assay: Antibacterial CFU assay.
The next assay addresses purified human factor Xa (human, UniProt P00742). Kind of assay: cell-based or functional assay.
Assay [3] addresses T1, purified human factor X (human, UniProt P00742). Kind of assay: cell-based or functional assay.
The target of assay [4] is T1, purified human factor X. Kind of assay: cell-based or functional assay. This is another data set of the same source.
A further assay has as its system cells. Kind of assay: Effect of CAP-37 on LPS-induced tissue factor generation. In kind it is cell-based. The note with it: for Tissue factor, figure in parentheses (relative to control = 1.0) / Tissue Factor / Activity: CAP-37 15 HA; for Activity: LPS alone = 100. The protocol:
Table 6 presents a comparison of the effect of RNIP, CAP18, and defensins HP-1 and HP-2 (Territo et al. (1989) J. Clin. Invest. 84:2017-2019) on LPS-induced tissue factor generation. Tissue factor assays were performed as follows. Mouse peritoneal cells were elicted with an intraperitoneal injection of thioglycolate medium and harvested 5-days later by irrigation with pyrogen-free saline. The cells were washed with RPMI 1640 medium, counted and resuspended at a concentration of 1.5-2.0×10^6 /ml in serum-free RPMI medium containing glutamine (0.29 mg/ml), penicillin (50 units/ml) and streptomycin (50/ml). Adherent cells were prepared by incubating 10 ml of a cell suspension (in RPMI 1640 media in sterile culture bottle (Nunclon, 50 ml, Inter Med) for 60 min. at 37° C. in a 5% CO2 atmosphere. The plastic adherent cells were recovered by scraping of the bottle with a sterile rubber policeman. The adherent cells were then washed twice with RPMI media, resuspended in serum-free medium (1×10^6 /ml) in culture tube (Nunc cryotube, Inter Med), and stimulated with graded doses of LPS for 6 hr. at 37° C. in a 5% CO2. The cell suspension was centrifuged and cell pellet was frozen at -80° C. until clotting assays were run.
Veronal buffered saline (VBS) was added to the cell pellet, lysed by 3 cycles of freeze/thaw and sonicated for 10 sec with a hand-held sonicator microbe (Handy Sonic, model UR-20P, Tomy Seiko LTD, Tokyo). Tissue factor activity was tested in modified unactivated partial thromboplastin time (7). One tenth ml of cell lysate (1×10^6 /ml) was preincubated with mouse plasma at 37° C. for 3 min. Then 0.1 ml of 25 mM-CaCl2 which contains phospholipid was added to the mixture and clotting time was measured using a fibrometer (Bio Quest Division, Becton Dickinson, Cokeysville, USA). A standard curve obtained from serial two-fold dilutions of rabbit brain thromboplastic (Simplastin, Ono Pharmaceutical Co.) was used to transpose tissue factor activity into arbitrary tissue factor units (1 μg/ml) suspension of rabbit brain was assigned a value of 1,000 units).
.dagger. LPS was incubated with CAP37 at 37° C. for 2 hours, and
the mixture was added to cells, then cultured for 6 hours.

Several values for one entry are separate records, joined by “and”; a condition that tells them apart may be missing. Equal values may be shown once.

The text below walks through data of patent US5618675A, “Methods and compositions for detecting lipopolysaccharides using CAP18 fragments” (Panorama Research, Inc., dated 1997).

With “21-1: synthetic rabbit RNIP-derived fragment, amino acids 135-151 of SEQ ID NO:4 (GLRKRLRKFRNKIKEKL)”, the “Inhibition of LPS-induced RNI-IC50” value in the assay on RAW 264.7 cells is > 2 µg/mL. Further, the “Hemagglutination MAC (minimum agglutinating concentration)” value (shortened to “Hemagglutination MAC”) in assay [1] was > 125 µg/mL.

As for “32-1: synthetic rabbit RNIP-derived fragment, amino acids 135-143 of SEQ ID NO:4 (GLRKRLRKF)”, the “Inhibition of LPS-induced RNI-IC50” value in the assay on RAW 264.7 cells is > 2 µg/mL. In addition, the “Hemagglutination MAC” value in assay [1] was > 125 µg/mL. Besides, the “inhibition of LPS induced tissue factor” value in assay [2] was “fail to inhibit”. Besides, the “anti-bacterial activity (CFU), words” value with Salmonella minnesota Re and in the assay with Salmonella typhimurium (FIG. 6D) was “not active” in each case. Further, the “effect on CFU at high concentrations alone and in various combinations” value in the assay on Salmonella typhimurium (FIG. 6F) is on record as “No effect”. For the same molecule, the “effect of pretreatment with peptide 32-1 on bacterial killing by peptide 197” value in the assay on Salmonella typhimurium (FIG. 6G) is listed as “no inhibition or augmentation”.

With “34-1: synthetic rabbit RNIP-derived fragment, amino acids 140-166 of SEQ ID NO:4 (LRKFRNKIKEKLKKIGQKIQGLLPKLA)”, in the assay with RAW 264.7 cells, the “Inhibition of LPS-induced RNI-IC50” value was > 2 µg/mL. In addition, the “Hemagglutination MAC” value in assay [1] is > 125 µg/mL.

“50-1: synthetic rabbit RNIP-derived fragment, amino acids 147-171 of SEQ ID NO:4 (IKEKLKKIGQKIQGLLPKLAPRTDY)”: the “Inhibition of LPS-induced RNI-IC50” value in the assay on RAW 264.7 cells turned out to be 0.3 µg/mL. For the same molecule, the “Hemagglutination MAC” value in [1] is > 125 µg/mL.

For the molecule “52-1: synthetic rabbit RNIP-derived fragment, amino acids 143-169 of SEQ ID NO:4 (FRNKIKEKLKKIGQKIQGLLPKLAPRT)”, in the assay with RAW 264.7 cells, the “Inhibition of LPS-induced RNI-IC50” value was > 2 µg/mL. In addition, the “Hemagglutination MAC” value in assay [1] is > 125 µg/mL.

In the case of “52-2: synthetic rabbit RNIP-derived fragment, amino acids 143-170 of SEQ ID NO:4 (FRNKIKEKLKKIGQKIQGLLPKLAPRTD)”, the “Inhibition of LPS-induced RNI-IC50” value in the assay with RAW 264.7 cells was > 2 µg/mL. Moreover, the “Hemagglutination MAC” value in [1] was > 125 µg/mL.

As for “52-3: synthetic rabbit RNIP-derived fragment, amino acids 132-171 of SEQ ID NO:4 as printed (EPTGLRKRLRKFRNKIKEKLKKIGQKIQGLLPKLAPRTDY)”, the “Inhibition of LPS-induced RNI-IC50” value in the assay with RAW 264.7 cells is > 2 µg/mL. Besides, the “Hemagglutination MAC” value in [1] was > 125 µg/mL.

With “54-1: synthetic rabbit RNIP-derived fragment, amino acids 139-170 of SEQ ID NO:4 (RLRKFRNKIKEKLKKIGQKIQGLLPKLAPRTD)”, in the assay on RAW 264.7 cells, the “Inhibition of LPS-induced RNI-IC50” value is > 2 µg/mL. Also, the “Hemagglutination MAC” value in assay [1] was > 125 µg/mL.

Regarding “54-2: synthetic rabbit RNIP-derived fragment, amino acids 139-171 of SEQ ID NO:4 (RLRKFRNKIKEKLKKIGQKIQGLLPKLAPRTDY)”, the “Inhibition of LPS-induced RNI-IC50” value in the assay on RAW 264.7 cells was > 2 µg/mL. Further, the “Hemagglutination MAC” value in [1] is > 125 µg/mL.

With “187: synthetic rabbit RNIP-derived fragment, amino acids 151-171 of SEQ ID NO:4 (LKKIGQKIQGLLPKLAPRTDY) [compound 187]”, in the assay on RAW 264.7 cells, the “activity in hemagglutination and inhibition of LPS-induced RNI” value is “inactive”; the “Inhibition of LPS-induced RNI-IC50” value is > 10 µg/mL. Further, in [1], the “Hemagglutination MAC” value is > 125 µg/mL.

Regarding polymyxin B [reference compound], the “inhibition of LPS-induced RNI production” value with RAW 264.7 cells (LPS 5ng/ml, FIG. 4) is given as “inhibition”.

B1: synthetic rabbit RNIP-derived peptide 36-1 (peptide)
peptide: GLRKRLRKFRNKIKEKLKKIGQKIQGLLPKLA
Consider B1, for which the IC50, prothrombin activation by factor Xa (synthetic substrate) with prothrombin (factor II) was < 30 nM. Moreover, the “IC50, Xa-induced clotting” value in the assay with purified human factor Xa was 2.2 µg/ml and 0.4 µM. In the assay with purified human factor X [3], the “IC50, Russell Viper Venom induced clotting” value was 0.9 µg/ml and 0.2 µM. Besides, in the assay with purified human factor X [4], the “IC50, RVV activation of factor X to Xa (synthetic substrate)” value was 10 µg/ml and 1.9 µM; the “IC50, factor X activation by tissue factor and factor VII (synthetic substrate)” value amounted to 100 nM.

B2: synthetic rabbit RNIP peptide 197 (reactive nitrogen inhibitory peptide, C-terminal 37 amino acids of rabbit CAP18) (peptide)
peptide: GLRKRLRKFRNKIKEKLKKIGQKIQGLLPKLAPRTDY
Consider B2, for which the IC50, prothrombin activation by factor Xa (synthetic substrate) with prothrombin (factor II) worked out at 50 nM. In addition, the “IC50, Xa-induced clotting” value in the assay with purified human factor Xa was 2.7 µg/ml and 0.5 µM. Moreover, the “IC50, Russell Viper Venom induced clotting” value with purified human factor X [3] is 0.7 µg/ml and 0.1 µM. In the assay with purified human factor X [4], the “IC50, RVV activation of factor X to Xa (synthetic substrate)” value was 6.7 µg/ml and 1.1 µM.

B3: CAP-37: another cationic peptide CAP37 (azurocidin) (Morgan et al. 1991) (protein, UniProt P20160 27-248, looked up)
Azurocidin: IVGGRKARPRQFPFLASIQNQGRHFCGGALIHARFVMTAASCFQSQNPGVSTVVLGAYDLRRRERQSRQTFSISSMSENGYDPQQNLNDLMLLQLDREANLTSSVTILPLPLQNATVEAGTRCQVAGWGSQRSGGRLSRFPRFVNVTVTPEDQCRPNNVCTGVLTRRGGICNGDGGTPLVCEGLAHGVASFSLGPCGRGPDFFTRVALFRDWIDGVLNNPGP
Regarding B3, the “inhibition of tissue factor generation” value in the assay with cells was “unable to inhibit”. The figures for the “Tissue factor, figure in parentheses (relative to control = 1.0)” value in the assay on cells (LPS 0.1 μg/ml), in the assay on cells (LPS 1.0 μg/ml) and in the assay with cells (no LPS) were 2.3, 3.9 and 1.1, respectively. In addition, the Tissue Factor in the assay with cells (LPS 0.1 μg/ml, LPS alone 412 ± 30) was 383 ± 307 units/1 × 10^5 cells; with cells (LPS 1.0 μg/ml, LPS alone 692 ± 27), 648 ± 343 units/1 × 10^5 cells; in the assay with cells (no LPS, control 168 ± 95) it was 183 ± 67 units/1 × 10^5 cells. The Activity in the assay with cells (LPS 0.1 μg/ml) is 93.0; in the assay with cells (LPS 1.0 μg/ml), 93.6.
